From paper PMC4752739, “Functional structure and antimicrobial activity of persulcatusin, an antimicrobial peptide from the hard tick Ixodes persulcatus” (Parasites & Vectors, 2016)
Where a SMILES comes first, the peptide text is derived from it. Bridges are numbered along the chain shown (N, C = ends).

How the values were obtained:
[1] = test system: bovine fetal fibroblasts (BFFs-NCC1); assay: Effect on mammalian cell growth, fibroblasts; assay type: cell-based; details: 50 μg/mL, 24 h or 48 h, trypan blue staining, automatic cell counter; triplicate
Protocol: (§1) In this study, we used bovine fetal fibroblasts (BFFs-NCC1) and bovine fetal colon epithelial cells (BFCEs-K4DT), which were maintained in the Laboratory of Animal Breeding and Genetics, Tohoku University Graduate School of Agricultural Science. The BFFs-NCC1 and BFCEs-K4DT were cultured in a cell culture dish and wrapped 12-well plates. The nutrient medium of each cell was Dulbecco’s modified Eagle’s medium (DMEM; Nacalai Tesque, Kyoto, Japan or Mediatech, Inc, Manassas, VA, USA) containing 10 % fetal bovine serum (Invitrogen, Carlsbad, CA, USA) and a 1 % antibiotic-antimycotic mixed stock solution (Nacalai Tesque). Then each cell was seeded into 12-well plates at 1 × 10^4 cell/well and 1 × 10^5 cell/well. After overnight incubation, the nutrient mediums were changed to DMEM with IP (0, 5, 10, 50 μg/mL), and cells were incubated for 24 h or 48 h (BFCEs-K4DT only 48 h) at 37 °C. Then, these were collected and measured using a trypan blue staining method, with an EVE™ Automatic cell counter (NanoEnTeK, Seoul, Korea). For BFCEs-K4DT, the morphology of untreated control (IP 0 μg/mL) and treated cell (IP 50 μg/mL) was observed.

[2] = test system: methicillin-susceptible S. aureus (MSSA) clinical strains; assay: Growth inhibition test (MIC), MSSA; assay type: cell-based, Staphylococcus aureus; details: all 9 clinical isolates of MSSA
Protocol: (§2) In the growth inhibition test, we used 9 clinical strains of methicillin-susceptible S. aureus (MSSA) and 9 clinical strains of MRSA from patients in Jichi Medical University Hospital, using these strains in past report. The bacteria were grown in Trypto Soya (TS; Nissui, Tokyo, Japan) broth for 18–19 h at 37 °C.
(§3) The optical density at 660 nm (OD660) of pre-cultured bacteria was measured using an Ubest-35 (JASCO Corporation, Tokyo, Japan). The adjustment for an OD660 of 0.5 was conducted by adding TS broth. The bacteria were diluted to a final concentration of 1–5 × 10^4 colony forming units (CFUs) /mL with TS broth, after which 50 μL of bacterial suspension and 50 μL of peptide solution were mixed together in a 96-well plate. The peptide solution was prepared by two-fold dilution in TS broth, while the IP solution was prepared to final peptide concentrations of 40, 20, 10, 5, 2.5, 1.25, 0.625, 0.313, 0.157, and 0.079 μg/mL. Each mixture of bacteria and peptide solution was incubated at 37 °C. The OD660 of the cell suspension was measured after 20–24 h incubation by using a Synergy™ HT (BioTek, Winooski, VT, USA). A control was prepared by mixing 50 μL of bacterial suspension, 40 μL of TS broth, and 10 μL of HBSS. The minimal inhibitory concentration (MIC) of the peptides was defined as the lowest concentration of peptide that reduced growth by >90 %.

BFFs-NCC1 = assay: Neutral comet assay, fibroblasts; assay type: cell-based, bovine; details: neutral conditions
Protocol: (§4) We prepared BFFs-NCC1 and BFCEs-K4DT treated or untreated with IP 50 μg/mL for 48 h as above experiment. These cells were harvested by centrifugation (800 g, 3 min) and washed with sterile Dulbecco’s Phosphate Buffered Saline (DPBS; GIBCO). To generate positive control for comet tails, a part of each cell is untreated with IP treated 25 μM KMnO4, and all samples placed for 20 min at 4 °C. The comet assay was performed under neutral conditions following the Trevigen protocol. Each cell at 1 × 10^5 cell/mL was combined with molten low-melting agarose at a ratio of 1 : 10 (vol /vol) and immediately pipetted 50 μL onto Comet slides. Slides were stored in the dark for 30 min at 4 °C before immersing in lysis solution overnight. The slides were immersed in freshly prepared neutral electrophoresis buffer (dissolved Tris base and sodium acetate in distilled water, pH 9.0) for 30 min at 4 °C. Gel electrophoresis was performed at 1 volt per cm (measured electrode to electrode) for 45 min in neutral electrophoresis buffer. The comet slides were immersed in DNA precipitation solution (7.5 M ammonium acetate containing 95 % ethanol) for 30 min at room temperature and then in 70 % ethanol for 30 min at room temperature. […] The slides were observed by fluorescence microscopy FSX100 (Olympus, Tokyo, Japan).

[3] = test system: bovine fetal colon epithelial cells (BFCEs-K4DT); assay: Effect on mammalian cell growth and morphology, colon epithelial cells; assay type: cell-based; details: 50 μg/mL, 48 h
Protocol: as §1

MSSA = assay: Short-time killing assay, MSSA; assay type: cell-based, Staphylococcus aureus; details: 1 h at 37 °C; for Susceptibility in short-time killing assay: colony count, % of control, triplicate
Protocol: (§5) We selected 3 strains each of MSSA and MRSA used in the growth inhibition test. Unlike the growth inhibition test described above, an additional growth inhibition test was conducted using small test tubes. Each mixture of bacteria and peptide solution was incubated for 1 h at 37 °C. After the incubation, 100 μL aliquots were removed from the tubes and inoculated on TS agar plates. The plates were incubated overnight at 37 °C, after which colonies were counted. The same control was prepared as in the growth inhibition test described above. The data were then converted and expressed as a percentage (sample per control).

MRSA clinical strains = assay: Growth inhibition test (MIC), MRSA; assay type: cell-based, Staphylococcus aureus; details: all 9 clinical isolates of MRSA
Protocol: as §2, §3

BFCEs-K4DT = assay: Neutral comet assay, colon epithelial cells; assay type: cell-based, bovine; details: neutral conditions
Protocol: as §4

MRSA [4] = assay: Short-time killing assay, MRSA; assay type: cell-based, Staphylococcus aureus; details: 1 h at 37 °C
Protocol: as §5

[5] = cited from earlier work
Source text: Host cytotoxicity of AMPs is a major limitation in their application as antimicrobial drugs. […] Not only that, but DNA damage was not detected in each cell treated with IP in neutral comet assay (Fig. 6). […] Moreover, in the hemolytic assay, we observed minimal hem ...

MRSA [6] = details: cited from earlier work
Source text: Host cytotoxicity of AMPs is a major limitation in their application as antimicrobial drugs. […] Not only that, but DNA damage was not detected in each cell treated with IP in neutral comet assay (Fig. 6). […] Moreover, in the hemolytic assay, we observed minimal hem ... || Treating MRSA infection is challenging owing to the remarkable ability of S. aureus to develop resistance to multiple antibiotics, thus limiting the number of viable therapeutic options. New anti-MRSA drugs called DAP were developed recently, but DAP-resistant bacteria have already been reported. Therefore, there is an urgent need to develop novel antimicrobials with unique mechanisms of action to combat MRSA, one of which is AMP [4]. It has been reported that tick AMP derived from Ornithodoros moubata, with an amino acid sequence similar to that of OMBAC (91 %) (Table 2) ...

[7] = positive control, 25 μM, 20 min at 4 °C

CC[C@H](C)[C@@H]1NC(=O)[C@H](CO)NC(=O)[C@H](CCCNC(=N)N)NC(=O)[C@@H]2CSSC[C@@H](C(=O)N[C@@H](Cc3ccc(O)cc3)C(=O)N[C@@H](CO)C(=O)N[C@@H](CCCNC(=N)N)C(=O)O)NC(=O)[C@H]([C@@H](C)O)NC(=O)[C@@H]3CSSC[C@H](NC(=O)[C@H](C)NC(=O)CNC(=O)[C@H](CCC(N)=O)NC(=O)[C@H](CC(N)=O)NC(=O)[C@H](Cc4ccccc4)NC(=O)[C@@H]4CCCN4C(=O)[C@@H](NC(=O)CNC(=O)[C@H](Cc4ccccc4)NC(=O)CN)CSSC[C@H](NC(=O)[C@H](Cc4ccc(O)cc4)NC(=O)CNC(=O)CNC(=O)[C@H](CCCNC(=N)N)NC(=O)[C@H](CCCNC(=N)N)NC(=O)CNC1=O)C(=O)N[C@@H](C)C(=O)NCC(=O)N[C@@H](CC(C)C)C(=O)N[C@@H](Cc1ccccc1)C(=O)N[C@@H](CCCCN)C(=O)N[C@@H](CCC(N)=O)C(=O)N[C@@H]([C@@H](C)O)C(=O)N3)C(=O)N[C@@H](Cc1c[nH]cn1)C(=O)N[C@@H](CCCNC(=N)N)C(=O)N[C@@H](Cc1c[nH]cn1)C(=O)N2 [IP, persulcatusin] (H-GFGCPFNQGACHRHCRSIGRRGGYCAGLFKQTCTCYSR-OH; disulfide 4-25, 11-33, 15-35 (inferred); N-terminus and C-terminus assumed)
Number of cells after treatment [1]: no significant differences | MIC at which growth of all 9 clinical isolates was inhibited [2]: 1.25 µg/mL | DNA damage (comet tails) (BFFs-NCC1; 50 μg/mL for 48 h): no comet tails | Cell morphology after treatment [3]: no morphological change | Number of cells after treatment ([3]; trypan blue staining, automatic cell counter, triplicate): no significant differences | Bactericidal activity within 1 h (MSSA; MSSA): dose-dependent bactericidal activity | Susceptibility in short-time killing assay (MSSA; strain MS-3): susceptible | Susceptibility in short-time killing assay (MSSA; strains MS-1 and MS-2): relatively resistant | MIC at which growth of all 9 clinical isolates was inhibited (MRSA clinical strains): 2.5 µg/mL | DNA damage (comet tails) (BFCEs-K4DT; 50 μg/mL for 48 h): no comet tails | Bactericidal activity within 1 h (MRSA [4]; MRSA): dose-dependent bactericidal activity | Susceptibility in short-time killing assay (MRSA [4]; all MRSA strains (MR-1, 2, 3), colony count, % of control, triplicate): susceptible

melittin
Hemolytic activity [5]: hemolytic activity | Antimicrobial activity against MRSA (MRSA [6]): antimicrobial activity against MRSA

GYGCPFNQYQCHSHCSGIRGYKGGYCKGTFKQTCKCY [(No use), 91 % similar to OMBAC]
MIC against MRSA (MRSA [6]): low MIC

[K+].[O]=[Mn](=[O])(=[O])[O-] [KMnO4, reference compound]
DNA damage (comet tails) (BFFs-NCC1; [7]): some comet tails | DNA damage (comet tails) (BFCEs-K4DT; [7]): some comet tails
